# Reference: US11484543B2, “Compositions and methods for diagnosing and treating diseases and disorders associated with mutant KCNJ5” (The Rockefeller University, priority 2017, dated 2022)
# Biological target: T1, KCNJ3/KCNJ5^WT (Homo sapiens, UniProt P48544)
# T1 construct: GFP; expressed in transfected cells; host or cells: HEK293T (American Type Culture Collection), transient co-transfection
# T1 sequence (P48544 1-419): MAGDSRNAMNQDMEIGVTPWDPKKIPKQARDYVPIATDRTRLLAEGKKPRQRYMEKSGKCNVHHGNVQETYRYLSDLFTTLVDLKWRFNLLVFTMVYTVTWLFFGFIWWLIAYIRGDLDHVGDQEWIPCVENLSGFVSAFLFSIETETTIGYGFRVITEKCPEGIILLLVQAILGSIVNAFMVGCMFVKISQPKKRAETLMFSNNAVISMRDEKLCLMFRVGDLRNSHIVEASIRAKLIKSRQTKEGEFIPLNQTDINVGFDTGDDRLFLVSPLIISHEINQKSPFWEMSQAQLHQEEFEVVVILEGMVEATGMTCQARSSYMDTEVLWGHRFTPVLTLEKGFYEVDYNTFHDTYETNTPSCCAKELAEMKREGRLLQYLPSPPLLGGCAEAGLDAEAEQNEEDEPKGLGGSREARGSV
# T1 sequence (P48549 1-501 partner): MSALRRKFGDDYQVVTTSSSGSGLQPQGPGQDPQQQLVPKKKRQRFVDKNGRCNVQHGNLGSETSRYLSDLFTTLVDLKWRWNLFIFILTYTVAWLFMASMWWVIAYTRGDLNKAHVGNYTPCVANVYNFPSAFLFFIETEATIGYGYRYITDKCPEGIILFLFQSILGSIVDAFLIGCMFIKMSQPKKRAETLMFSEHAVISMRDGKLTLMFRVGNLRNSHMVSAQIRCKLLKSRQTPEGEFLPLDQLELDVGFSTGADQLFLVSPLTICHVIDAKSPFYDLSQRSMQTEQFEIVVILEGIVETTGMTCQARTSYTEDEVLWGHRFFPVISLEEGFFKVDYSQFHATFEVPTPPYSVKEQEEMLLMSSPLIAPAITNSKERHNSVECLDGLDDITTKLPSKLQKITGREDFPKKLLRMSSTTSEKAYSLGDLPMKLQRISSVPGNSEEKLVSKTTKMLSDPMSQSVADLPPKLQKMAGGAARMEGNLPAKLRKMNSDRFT
# Assay: Perforated whole-cell patch clamp, KCNJ3/KCNJ5^WT heterotetramers in HEK293T cells
# Format: cell-based
# Settings: 20 μM, 10 minutes after addition
# Protocol: HEK293T cells (American Type Culture Collection) were used for transient expression of GFP-tagged KCNJ5 or KCNJ3. The cells were grown in Dulbecco's modified Eagle medium (DMEM; Invitrogen) supplemented with 10% FBS (Invitrogen) in 5% CO2 and 95% air at 37° C. Cells were grown to 50-70% confluence for transfection, and the corresponding cDNAs (Choi et al., 2011, Science 331:768-772) were simultaneously applied to the cells using TurboFect transfection reagent according to the manufacturer's protocol (Fermentas). […]
# Within 24 hr after transfection, the cells were treated with trypsin-containing medium (TrypLE Express) (Gibco) for 10 minutes to detach the cells. […] Fluorescence signal (an indication of positive transfection) was detected with an intensified video imaging system including a SIT 68 camera (Long Island Industries). […] After forming a high resistance seal (>2 GΩ), the membrane capacitance was monitored until the whole-cell patch configuration was formed. The cell membrane capacitance was measured and compensated. The K/cation currents were measured from −80 mV to 20 mV with 20 mV steps by an Axon 200A patch-clamp amplifier. The currents were low-pass filtered at 1 KHz and digitized by an Axon interface (Digidata 1200) and were analyzed using the pClamp software system 9 (Axon). […]
structure (smiles),measurement,value
"CC[C@H]1OC(=O)[C@H](C)[C@@H](O[C@H]2C[C@@](C)(OC)[C@@H](O)[C@H](C)O2)[C@H](C)[C@@H](O[C@@H]2O[C@H](C)C[C@H](N(C)C)[C@H]2O)[C@](C)(O)C[C@@H](C)/C(=N\OCOCCOC)[C@H](C)[C@@H](O)[C@]1(C)O [Roxithromycin, roxithromycin]",inhibition of potassium currents in KCNJ3/KCNJ5^WT channels,no inhibition
